# Like-named read-outs stand apart in the source and are kept apart here.
# Key:
# KLF5^K369R protein = target: T1, KLF5^K369R protein (Homo sapiens, UniProt Q13887, K369R); assay: Fluorescence titration (quenching) of KLF5 protein; conditions: read-out: binding constant Kd
# T1 construct: made in house; host or cells: E. coli BL21 DE3
# Experimental: (§1) Wild-type or mutant KLF5 protein at 1 μM in 2 mL PBS was measured for fluorescence spectrum using a fluorescence spectrometer (HORIBA, Kyoto, Japan), and the fluorescence spectra were obtained for wavelengths of 300–500 nm. NTZ with various concentration ranges and various increments were used in the analysis, including 0.1–1 μM with an increment of 0.1 μM, 1–5 μM with an increment of 0.5 μM, 5–10 μM with an increment of 1 μM, and 10–30 μM with an increment of 5 μM. The incubation with NTZ was for 5 s at room temperature. Data were processed and fitted to obtain the binding affinities using the Origin software (OriginLab, Northampton, MA, USA), and Kd values were determined by the responses at […] wavelength.
# KLF5 protein = target: T2, KLF5 protein (Homo sapiens, UniProt Q13887); assay: Fluorescence titration (quenching) of KLF5 protein; conditions: read-out: binding constant Kd
# T2 construct: made in house; host or cells: E. coli BL21 DE3
# Experimental: as §1
# KLF5^K369Q protein = target: T3, KLF5^K369Q protein (Homo sapiens, UniProt Q13887, K369Q); assay: Fluorescence titration (quenching) of KLF5 protein; conditions: read-out: binding constant Kd
# T3 construct: made in house; host or cells: E. coli BL21 DE3
# Experimental: as §1
# [1] = tested on: PC-3 (KLF5 null) cells expressing KLF5^K369Q; assay: CCK-8 cell viability assay; format: cell-based, human; conditions: Homo sapiens; PC-3 (KLF5 null), KLF5^K369Q; CCK-8, 48 h
# Experimental: (§2) According to the manufacturer's instructions, cell viability was measured using a kit from Beyotime Biotechnology. Briefly, cells were seeded onto 96-well plates at 5 × 10^3 cells per well, incubated overnight, and then treated for 48 h with drugs at 0, 0.02, 0.05, 0.14, 0.41, 1.23, 3.7, 11.1, 33.3, and 100 μM. Four drugs were analyzed: furagin, nifuratel, nitazoxanide, and retapamulin. At the end of drug treatment, the medium was removed, the CCK-8 solution was added into each well at 100 μL/well and incubated for 1.5 h at 37°C, and the optical density (OD) was measured at 450 nm using a microplate reader (BioTek).
# (§3) We also tested a wider range of NTZ concentrations in PC-3-KQ and DU 145-KQ cells using the CCK-8 assay by seeding 2 × 10^3 cells and 2.5 × 10^3 cells onto each well of 96-well plates. PC-3-KQ cells were treated with NTZ at 0, 0.01, 0.1, […], 2.5, and 5 μM, while DU 145-KQ cells were treated with NTZ at 0, 0.01, 0.1, 5, 10, and 20 μM for 0, 24, 48, and 72 h. The number of viable cells was determined using the CCK-8 solution as described above.
# [2] = tested on: DU 145 (KLF5 null) cells expressing KLF5^K369Q; assay: CCK-8 cell viability assay; format: cell-based, human; conditions: Homo sapiens; DU 145 (KLF5 null), KLF5^K369Q; CCK-8, 48 h
# Experimental: as §2, §3
# [3] = tested on: PC-3 (KLF5 null) cells expressing KLF5; assay: CCK-8 cell viability assay; format: cell-based; conditions: Homo sapiens, CCK-8, 48 h
# Experimental: as §2
# [4] = tested on: DU 145 (KLF5 null) cells expressing KLF5; assay: CCK-8 cell viability assay; format: cell-based; conditions: Homo sapiens, CCK-8, 48 h
# Experimental: as §2
# [5] = tested on: PC-3 (KLF5 null) cells expressing KLF5^K369R; assay: CCK-8 cell viability assay; format: cell-based; conditions: Homo sapiens, CCK-8, 48 h
# Experimental: as §2
# [6] = tested on: DU 145 (KLF5 null) cells expressing KLF5^K369R; assay: CCK-8 cell viability assay; format: cell-based; conditions: Homo sapiens, CCK-8, 48 h
# Experimental: as §2
# PC-3-KQ cells = assay: 3D spheroid invasion assay and screening of FDA-approved drugs; format: cell-based, human; conditions: for activity at 0.01 µM / activity at 0.1 µM / activity at 1 µM / activity at 10 µM / inhibition at 0.1 µM: Homo sapiens; for activity at 0.01 µM / activity at 0.1 µM / activity at 1 µM / activity at 10 µM: 72 h, read-out: Invasion rates (%) of each drug’s multiple concentrations; for activity at 0.01 µM / activity at 0.1 µM / activity at 1 µM / activity at 10 µM / Invasion rates (%) of each drug’s multiple concentrations (μM): compared to vehicle control; for inhibition at 0.1 µM: read-out: inhibition of cell invasion
# How it was run: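 Cells were clustered into spheroids by centrifugation and grown 3 days, then embedded in matrigel-medium containing drug on day 4 and cultured another 3 days. Drugs were screened at 10 μM first, then at 0–10 μM, in duplicate wells. Invasion area is total area minus core sphere area from phase-contrast images.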
# [7] = 0.01 μM (first column so headed), secondary screening of 87 hit compounds (Table S1)
# [8] = 0.01 μM (first column so headed), third screening of 25 hit compounds (Table S2)
# [9] = 0.01 μM (second column so headed), secondary screening of 87 hit compounds (Table S1)
# [10] = 0.01 μM (second column so headed), third screening of 25 hit compounds (Table S2)
# [11] = 0.1 μM, secondary screening of 87 hit compounds (Table S1)
# [12] = 0.1 μM, third screening of 25 hit compounds (Table S2)
# [13] = 1 μM, secondary screening of 87 hit compounds (Table S1)
# [14] = 1 μM, third screening of 25 hit compounds (Table S2)
# [15] = 10 μM, secondary screening of 87 hit compounds (Table S1)
# [16] = 10 μM, third screening of 25 hit compounds (Table S2)
# T2 sequence (Q13887 whole entry): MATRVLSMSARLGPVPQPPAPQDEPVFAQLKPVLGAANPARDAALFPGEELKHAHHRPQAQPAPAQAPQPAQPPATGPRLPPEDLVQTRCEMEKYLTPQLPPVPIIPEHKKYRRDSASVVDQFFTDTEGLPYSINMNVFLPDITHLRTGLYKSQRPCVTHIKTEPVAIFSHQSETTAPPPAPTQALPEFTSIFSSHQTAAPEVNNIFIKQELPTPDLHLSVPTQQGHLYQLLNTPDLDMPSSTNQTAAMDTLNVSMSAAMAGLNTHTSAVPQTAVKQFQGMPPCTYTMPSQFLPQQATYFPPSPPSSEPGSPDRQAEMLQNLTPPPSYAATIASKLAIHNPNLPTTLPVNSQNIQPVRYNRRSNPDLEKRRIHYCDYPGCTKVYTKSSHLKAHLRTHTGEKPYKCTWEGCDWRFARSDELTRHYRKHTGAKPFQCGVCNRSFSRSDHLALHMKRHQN
# T3 sequence (Q13887 whole entry K369Q): as the sequence (Q13887 whole entry) above, with K369Q counted along it
# T1 sequence (Q13887 whole entry K369R): as the sequence (Q13887 whole entry) above, with K369R counted along it
Molecule,IC50 [1],IC50 [2],IC50 [3],IC50 [4],IC50 [5],IC50 [6],activity at 0.01 µM (PC-3-KQ cells; [7]),activity at 0.01 µM (PC-3-KQ cells; [8]),activity at 0.01 µM (PC-3-KQ cells; [9]),activity at 0.01 µM (PC-3-KQ cells; [10]),activity at 0.1 µM (PC-3-KQ cells; [11]),activity at 0.1 µM (PC-3-KQ cells; [12]),activity at 1 µM (PC-3-KQ cells; [13]),activity at 1 µM (PC-3-KQ cells; [14]),activity at 10 µM (PC-3-KQ cells; [15]),activity at 10 µM (PC-3-KQ cells; [16]),Invasion rates (%) of each drug’s multiple concentrations (μM) (PC-3-KQ cells; [9]),Invasion rates (%) of each drug’s multiple concentrations (μM) (PC-3-KQ cells; [11]),Invasion rates (%) of each drug’s multiple concentrations (μM) (PC-3-KQ cells; [13]),Invasion rates (%) of each drug’s multiple concentrations (μM) (PC-3-KQ cells; [15]),also measured
CC1(C)CCC(C)(C)c2cc(NC(=O)c3ccc(C(=O)O)cc3)ccc21 [Am80],,,,,,,,,,,,,,,,,,,,,Kd (KLF5^K369R protein): > 30 µM; Kd (KLF5 protein): > 30 µM; Kd (KLF5^K369Q protein): > 30 µM
O=C1CN(/N=C/C=C/c2ccc([N+](=O)[O-])o2)C(=O)N1 [Furagin],28.6 ± 1.9 µM,63.3 ± 2.4 µM,17.3 ± 2.2 µM,31.4 ± 4 µM,101 ± 27.9 µM,359 ± 127 µM,24.8%,77.1%,42.2%,97.5%,5.95%,2.26%,3.36%,2.3%,2.18%,1.29%,,,,,inhibition at 0.1 µM (PC-3-KQ cells): > 50%
CSCC1CN(/N=C/c2ccc([N+](=O)[O-])o2)C(=O)O1 (stereo not shown) [Nifuratel],18.6 ± 0.7 µM,16.2 ± 0.8 µM,32 ± 1.6 µM,7.1 ± 0.7 µM,18.7 ± 1 µM,14 ± 0.2 µM,70%,59.9%,82.6%,93.9%,60.6%,7.32%,8.43%,3.12%,0.26%,1.46%,,,,,inhibition at 0.1 µM (PC-3-KQ cells): > 50%
C=C[C@]1(C)C[C@@H](OC(=O)CS[C@@H]2C[C@H]3CC[C@@H](C2)N3C)[C@]2(C)[C@H](C)CC[C@]3(CCC(=O)[C@H]32)[C@@H](C)[C@@H]1O [Retapamulin],12.6 ± 2.3 µM,14.7 ± 1.5 µM,1.6 ± 0.3 µM,13.7 ± 2.7 µM,12.2 ± 1.1 µM,11.1 ± 0.8 µM,7.43%,74.4%,,94.3%,7.18%,4.92%,7.28%,1.65%,4.68%,2.42%,,,,,inhibition at 0.1 µM (PC-3-KQ cells): > 50%
CCS(=O)(=O)CCn1c([N+](=O)[O-])cnc1C [Tinidazole],,,,,,,78.9%,89.2%,90.7%,88.2%,47.1%,90.2%,6.59%,8.88%,2.67%,2.87%,,,,,
Acetylspiramycin,,,,,,,,,,,,,,,,,96.46%,96.77%,87.68%,2.37%,Invasion rates (%) of each drug’s multiple concentrations (μM) (PC-3-KQ cells; [7]): 96.71%
Daptomycin,,,,,,,,,,,,,,,,,96.99%,95.71%,88.47%,1.26%,Invasion rates (%) of each drug’s multiple concentrations (μM) (PC-3-KQ cells; [7]): 96.29%
Gramicidin,,,,,,,,,,,,,,,,,107.53%,94.19%,93.53%,0.41%,
Spiramycin,,,,,,,,,,,,,,,,,91.77%,85.48%,80.28%,55.32%,Invasion rates (%) of each drug’s multiple concentrations (μM) (PC-3-KQ cells; [7]): 90.26%

# Source: publication PMC9945734 (BMC Medicine, 2023)
